Laboratory results published in ChEMBL document CHEMBL1201862, “PubChem BioAssay data set” (2004).
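A five-concentration, 48-hour dose response in 96-well plates underlies each endpoint, interpolated linearly between surrounding concentrations. The concentration for 50% growth inhibition is given as GI50.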 Active and inactive are the calls of the source. Rule as the data show it: active = GI50 up to about 1.1 µM and inactive = higher.

Columns and labels:
Experiment in all cases: NCI anticancer screen, dose series, 48 h
786-0 = tested on: 786-0
A498 = tested on: A498
A549 = tested on: A549
ACHN = tested on: ACHN
BT-549 = tested on: BT-549
CAKI-1 = tested on: CAKI-1
CCRF-CEM = tested on: CCRF-CEM
COLO 205 = tested on: COLO 205
DU-145 = tested on: DU-145
EKVX = tested on: EKVX
HCC 2998 = tested on: HCC 2998
HCT-116 = tested on: HCT-116
HCT-15 = tested on: HCT-15
HOP-62 = tested on: HOP-62
HOP-92 = tested on: HOP-92
HT-29 = tested on: HT-29
Hs-578T = tested on: Hs-578T
IGROV-1 = tested on: IGROV-1
K562 = tested on: K562
KM12 = tested on: KM12
LOX IMVI = tested on: LOX IMVI
M14 = tested on: M14
MCF7 = tested on: MCF7
MDA-MB-231 = tested on: MDA-MB-231
MDA-MB-435 = tested on: MDA-MB-435
MOLT-4 = tested on: MOLT-4
Malme-3M = tested on: Malme-3M
NCI-H226 = tested on: NCI-H226
NCI-H23 = tested on: NCI-H23
NCI-H460 = tested on: NCI-H460
NCI/ADR-RES = tested on: NCI/ADR-RES
OVCAR-3 = tested on: OVCAR-3
OVCAR-4 = tested on: OVCAR-4
OVCAR-5 = tested on: OVCAR-5
OVCAR-8 = tested on: OVCAR-8
PC-3 = tested on: PC-3
RPMI-8226 = tested on: RPMI-8226
RXF 393 = tested on: RXF 393
SF-268 = tested on: SF-268
SF-295 = tested on: SF-295
SF-539 = tested on: SF-539
SK-MEL-28 = tested on: SK-MEL-28
SK-MEL-2 = tested on: SK-MEL-2
SK-MEL-5 = tested on: SK-MEL-5
SK-OV-3 = tested on: SK-OV-3
SN12C = tested on: SN12C
SNB-19 = tested on: SNB-19
SR = tested on: SR
SW-620 = tested on: SW-620
T47D = tested on: T47D
TK-10 = tested on: TK-10
U-251 = tested on: U-251
UACC-257 = tested on: UACC-257
UACC-62 = tested on: UACC-62
UO-31 = tested on: UO-31
NCI-H522 = tested on: NCI-H522
SNB-75 = tested on: SNB-75

COc1cc2c(cc1C[C@H]1[C@@H]3C[C@H]4c5c(c6ccccc6n5C)C[C@@H]([C@@H]3CO[C@]1(C)OC(C)=O)N4C)c1c(n2C)C2C[C@H]3C(C(C)=O)=COC[C@H]3[C@H](C1)N2C
GI50 (786-0): 2.86 µM (inactive)
GI50 (A498): 12.3 µM (inactive)
GI50 (A549): > 25 µM (inactive)
GI50 (ACHN): 3.87 µM (inactive)
GI50 (BT-549): 3.29 µM (inactive)
GI50 (CAKI-1): 2.23 µM (inactive)
GI50 (CCRF-CEM): 2.55 µM (inactive)
GI50 (COLO 205): 3.08 µM (inactive)
GI50 (DU-145): 6.38 µM (inactive)
GI50 (EKVX): 0.403 µM (active)
GI50 (HCC 2998): 0.0102 µM (active)
GI50 (HCT-116): 2.5 µM (inactive)
GI50 (HCT-15): 3.13 µM
GI50 (HOP-62): 1.56 µM (inactive)
GI50 (HOP-92): 4.98 µM (inactive)
GI50 (HT-29): 1.53 µM (inactive)
GI50 (Hs-578T): 2.8 µM (inactive)
GI50 (IGROV-1): 7.24 µM (inactive)
GI50 (K562): 6.03 µM (inactive)
GI50 (KM12): 2 µM (inactive)
GI50 (LOX IMVI): > 25 µM (inactive)
GI50 (M14): 3.11 µM (inactive)
GI50 (MCF7): 7.48 µM (inactive)
GI50 (MDA-MB-231): 4.55 µM (inactive)
GI50 (MDA-MB-435): > 25 µM (inactive)
GI50 (MOLT-4): 2.44 µM (inactive)
GI50 (Malme-3M): 3.18 µM (inactive)
GI50 (NCI-H226): 5.46 µM (inactive)
GI50 (NCI-H23): 7.06 µM (inactive)
GI50 (NCI-H460): 3.38 µM (inactive)
GI50 (NCI/ADR-RES): 2.93 µM (inactive)
GI50 (OVCAR-3): 2.66 µM (inactive)
GI50 (OVCAR-4): 3.8 µM (inactive)
GI50 (OVCAR-5): 4.35 µM (inactive)
GI50 (OVCAR-8): 3.66 µM (inactive)
GI50 (PC-3): 0.462 µM (active)
GI50 (RPMI-8226): 0.764 µM (active)
GI50 (RXF 393): 2.58 µM (inactive)
GI50 (SF-268): 2.69 µM (inactive)
GI50 (SF-295): 4.67 µM (inactive)
GI50 (SF-539): 2.84 µM (inactive)
GI50 (SK-MEL-28): 9.91 µM (inactive)
GI50 (SK-MEL-2): 4.86 µM (inactive)
GI50 (SK-MEL-5): 3.54 µM (inactive)
GI50 (SK-OV-3): 11.1 µM (inactive)
GI50 (SN12C): 6.24 µM (inactive)
GI50 (SNB-19): 5.2 µM (inactive)
GI50 (SR): 2.64 µM (inactive)
GI50 (SW-620): 4.13 µM (inactive)
GI50 (T47D): 2.2 µM (inactive)
GI50 (TK-10): 3.62 µM (inactive)
GI50 (U-251): 5.57 µM (inactive)
GI50 (UACC-257): 4.03 µM (inactive)
GI50 (UACC-62): 5.11 µM (inactive)
GI50 (UO-31): 6.27 µM (inactive)

Cc1cc(N(CCC#N)CCC#N)ccc1C(/N=N\c1ccc(C(=O)O)cc1)=N\NC(=O)c1cc(Cl)ccc1O
GI50 (786-0): 19.3 µM (inactive)
GI50 (A498): 28.6 µM (inactive)
GI50 (A549): 42.2 µM (inactive)
GI50 (ACHN): 31.7 µM (inactive)
GI50 (BT-549): 45.9 µM (inactive)
GI50 (CAKI-1): 46.6 µM (inactive)
GI50 (CCRF-CEM): 59.8 µM (inactive)
GI50 (COLO 205): > 100 µM (inactive)
GI50 (DU-145): 64 µM (inactive)
GI50 (EKVX): 33 µM (inactive)
GI50 (HCC 2998): > 100 µM (inactive)
GI50 (HCT-116): 36.1 µM (inactive)
GI50 (HCT-15): > 100 µM
GI50 (HOP-62): 27 µM (inactive)
GI50 (HT-29): > 100 µM (inactive)
GI50 (Hs-578T): 19.7 µM (inactive)
GI50 (IGROV-1): 24.7 µM (inactive)
GI50 (K562): > 100 µM (inactive)
GI50 (KM12): 28.8 µM (inactive)
GI50 (M14): > 100 µM (inactive)
GI50 (MCF7): 32.4 µM (inactive)
GI50 (MDA-MB-231): 26.6 µM (inactive)
GI50 (MDA-MB-435): > 100 µM (inactive)
GI50 (MOLT-4): > 100 µM (inactive)
GI50 (Malme-3M): 56.6 µM (inactive)
GI50 (NCI-H226): 18.7 µM (inactive)
GI50 (NCI-H23): 39.2 µM (inactive)
GI50 (NCI-H460): 36 µM (inactive)
GI50 (NCI-H522): 17.1 µM (inactive)
GI50 (NCI/ADR-RES): 37.6 µM (inactive)
GI50 (OVCAR-3): 56.2 µM (inactive)
GI50 (OVCAR-4): 29.2 µM (inactive)
GI50 (OVCAR-5): > 100 µM (inactive)
GI50 (OVCAR-8): 25.3 µM (inactive)
GI50 (PC-3): 61 µM (inactive)
GI50 (RPMI-8226): > 100 µM (inactive)
GI50 (RXF 393): 25.4 µM (inactive)
GI50 (SF-268): 19.2 µM (inactive)
GI50 (SF-295): 12.4 µM (inactive)
GI50 (SF-539): > 10 µM (inactive)
GI50 (SK-MEL-2): 83.6 µM (inactive)
GI50 (SK-MEL-5): 78.7 µM (inactive)
GI50 (SK-OV-3): 28.2 µM (inactive)
GI50 (SN12C): > 100 µM (inactive)
GI50 (SNB-19): 23.6 µM (inactive)
GI50 (SNB-75): 22.6 µM (inactive)
GI50 (SR): 62.8 µM (inactive)
GI50 (T47D): 40.7 µM (inactive)
GI50 (TK-10): 40.2 µM (inactive)
GI50 (U-251): 24.9 µM (inactive)
GI50 (UACC-257): > 100 µM (inactive)
GI50 (UACC-62): 31.1 µM (inactive)
GI50 (UO-31): 22.1 µM (inactive)
